Reference: US12030904B2 (priority 2020, dated 2024)
Where two headings read alike, the source gives them in different places.

Experiments:
[1] = tested on: Recombinant Respiratory Syncytial virus strain A2 containing the firefly luciferase reporter (RSV-Fluc); assay: microbe, parasite or virus in culture; assay type: cell-based; settings: human respiratory syncytial virus, NHBE
SARS-CoV-2 = assay: microbe, parasite or virus in culture; assay type: cell-based; settings: Severe acute respiratory syndrome coronavirus 2, read-out: SARS EC50
MT4 cytotoxicity (CC50) = settings: human, MT4 cells, MT4 CC50, Table 4
[2] = 72 h, read-out: RSV-Fluc EC50 (NHBE), NHBE cells, three days, Table 2

Compound | EC50 [1, 2] [µM] | EC50 ([1]; read-out: RSV EC50, Table 2a) [µM] | EC50 (SARS-CoV-2) [µM] | EC50 ([1]; read-out: RSV EC50, Table 4) [µM] | CC50 (MT4 cytotoxicity (CC50)) [µM]
CCCCCCCCCCCCCCCCCCOC[C@H](COP(=O)(O)OC[C@H]1O[C@@](C#N)(c2ccc3c(N)ncnn23)[C@H](O)[C@@H]1O)OCc1cc(C#N)cc(C#N)c1 [Example 26, ((2R,3S,4R,5R)-5-(4-aminopyrrolo[2,1-f][1,2,4]triazin-7-yl)-5-cyano-3,4-dihydroxytetrahydrofuran-2-yl)methyl ((R)-2-((3,5-dicyanobenzyl)oxy)-3-(octadecyloxy)propyl) hydrogen phosphate] | 0.019 | 0.019 | 0.65 |  | 
CCCCCCCCCCCCCCCCCCOC[C@@H](COP(=O)(O)OC[C@H]1O[C@@](C#N)(c2ccc3c(N)ncnn23)[C@H](O)[C@@H]1O)Oc1ccccc1 [Example 38, ((2R,3S,4R,5R)-5-(4-aminopyrrolo[2,1-f][1,2,4]triazin-7-yl)-5-cyano-3,4-dihydroxytetrahydrofuran-2-yl)methyl ((S)-3-(octadecyloxy)-2-phenoxypropyl) hydrogen phosphate] |  | 0.281 | 10 |  | 
CCCCCCCCCCCCCCCCCCOC[C@H](COP(=O)(O)OC[C@H]1O[C@@](C#N)(c2ccc3c(N)ncnn23)[C@H](O)[C@@H]1O)OCc1ccccc1C#N [Example 50, ((2R,3S,4R,5R)-5-(4-aminopyrrolo[2,1-f][1,2,4]triazin-7-yl)-5-cyano-3,4-dihydroxytetrahydrofuran-2-yl)methyl ((R)-2-((2-cyanobenzyl)oxy)-3-(octadecyloxy)propyl) hydrogen phosphate] | 0.09 | 0.09 | 0.854 |  | 
CCCCCCCCCCCCCCCCCCOC[C@H](COP(=O)(O)OC[C@H]1O[C@@](C#N)(c2ccc3c(N)ncnn23)[C@H](O)[C@@H]1O)OCc1cccc(OC)c1 [Example 63, ((2R,3S,4R,5R)-5-(4-aminopyrrolo[2,1-f][1,2,4]triazin-7-yl)-5-cyano-3,4-dihydroxytetrahydrofuran-2-yl)methyl ((R)-2-((3-methoxybenzyl)oxy)-3-(octadecyloxy)propyl) hydrogen phosphate] | 0.033 | 0.003 | 1.05 |  | 
CCCCCCCCCCCCCCCCCCOC[C@H](COP(=O)(O)OC[C@H]1O[C@@](C#N)(c2ccc3c(N)ncnn23)[C@H](O)[C@@H]1O)OCc1ccccc1Cl [Example 64, ((2R,3S,4R,5R)-5-(4-aminopyrrolo[2,1-f][1,2,4]triazin-7-yl)-5-cyano-3,4-dihydroxytetrahydrofuran-2-yl)methyl ((R)-2-((2-chlorobenzyl)oxy)-3-(octadecyloxy)propyl) hydrogen phosphate] | 0.042 | 0.042 | 0.735 |  | 
CCCCCCCCCCCCCCCCCCOC[C@H](COP(=O)(O)OC[C@H]1O[C@@](C#N)(c2ccc3c(N)ncnn23)[C@H](O)[C@@H]1O)OCc1c(F)cccc1C#N [Example 65, ((2R,3S,4R,5R)-5-(4-aminopyrrolo[2,1-f][1,2,4]triazin-7-yl)-5-cyano-3,4-dihydroxytetrahydrofuran-2-yl)methyl ((R)-2-((2-cyano-6-fluorobenzyl)oxy)-3-(octadecyloxy)propyl) hydrogen phosphate] | 0.061 | 0.061 |  |  | 
CCCCCCCCCCCCCCCCCCOC[C@H](COP(=O)(O)OC[C@H]1O[C@@](C#N)(c2ccc3c(N)ncnn23)[C@H](O)[C@@H]1O)OCc1cc(C#N)ccc1F [Example 66, ((2R,3S,4R,5R)-5-(4-aminopyrrolo[2,1-f][1,2,4]triazin-7-yl)-5-cyano-3,4-dihydroxytetrahydrofuran-2-yl)methyl ((R)-2-((5-cyano-2-fluorobenzyl)oxy)-3-(octadecyloxy)propyl) hydrogen phosphate] | 0.01 | 0.01 | 0.476 |  | 
CCCCCCCCCCCCCCCCCCOC[C@H](COP(=O)(O)OC[C@H]1O[C@@](C#N)(c2ccc3c(N)ncnn23)[C@H](O)[C@@H]1O)OCc1cc(Cl)cc(C#N)c1 [Example 68, ((2R,3S,4R,5R)-5-(4-aminopyrrolo[2,1-f][1,2,4]triazin-7-yl)-5-cyano-3,4-dihydroxytetrahydrofuran-2-yl)methyl ((R)-2-((3-chloro-5-cyanobenzyl)oxy)-3-(octadecyloxy)propyl) hydrogen phosphate] | 0.025 | 0.025 | 0.927 |  | 
CCCCCCCCCCCCCCCCCCOC[C@H](COP(=O)(O)OC[C@H]1O[C@@](C#N)(c2ccc3c(N)ncnn23)[C@H](O)[C@@H]1O)Oc1cncc(C#N)c1 [Example 84, ((2R,3S,4R,5R)-5-(4-aminopyrrolo[2,1-f][1,2,4]triazin-7-yl)-5-cyano-3,4-dihydroxytetrahydrofuran-2-yl)methyl ((R)-2-((5-cyanopyridin-3-yl)oxy)-3-(octadecyloxy)propyl) hydrogen phosphate] |  |  |  | 0.007 | 0.212
CCCCCCCCCCCCCCCCCCOC[C@H](COP(=O)(O)OC[C@H]1O[C@@](C#N)(c2ccc3c(N)ncnn23)[C@H](O)[C@@H]1O)Oc1ccc(C#N)c(OCC)c1 [Example 85, ((2R,3S,4R,5R)-5-(4-aminopyrrolo[2,1-f][1,2,4]triazin-7-yl)-5-cyano-3,4-dihydroxytetrahydrofuran-2-yl)methyl ((R)-2-(4-cyano-3-ethoxyphenoxy)-3-(octadecyloxy)propyl) hydrogen phosphate] |  |  |  | 0.008 | 0.143
CCCCCCCCCCCCCCCCCCOC[C@@H](CCc1cc(F)cc(C#N)c1)COP(=O)(O)OC[C@H]1O[C@@](C#N)(c2ccc3c(N)ncnn23)[C@H](O)[C@@H]1O [Example 86, ((2R,3S,4R,5R)-5-(4-aminopyrrolo[2,1-f][1,2,4]triazin-7-yl)-5-cyano-3,4-dihydroxytetrahydrofuran-2-yl)methyl ((R)-4-(3-cyano-5-fluorophenyl)-2-((octadecyloxy)methyl)butyl) hydrogen phosphate] |  |  |  | 0.43 | 22
CCCCCCCCCCCCCCCCCCOC[C@H](COP(=O)(O)OC[C@H]1O[C@@](C#N)(c2ccc3c(N)ncnn23)[C@H](O)[C@@H]1O)Oc1ccccc1 [Example 87, ((2R,3S,4R,5R)-5-(4-aminopyrrolo[2,1-f][1,2,4]triazin-7-yl)-5-cyano-3,4-dihydroxytetrahydrofuran-2-yl)methyl ((R)-3-(octadecyloxy)-2-phenoxypropyl) hydrogen phosphate] |  |  |  |  | 3.1
CCCCCCCCCCCCCCCCCCOC[C@H](COP(=O)(O)OC[C@H]1O[C@@](C#N)(c2ccc3c(N)ncnn23)[C@H](O)[C@@H]1O)Oc1cccc(OC)n1 [Example 88, ((2R,3S,4R,5R)-5-(4-aminopyrrolo[2,1-f][1,2,4]triazin-7-yl)-5-cyano-3,4-dihydroxytetrahydrofuran-2-yl)methyl ((R)-2-((6-methoxypyridin-2-yl)oxy)-3-(octadecyloxy)propyl) hydrogen phosphate] |  |  |  | 0.031 | 0.201
CCCCCCCCCCCCCCCCCCOC[C@H](COP(=O)(O)OC[C@H]1O[C@@](C#N)(c2ccc3c(N)ncnn23)[C@H](O)[C@@H]1O)Oc1ccc(OC)cn1 [Example 89, ((2R,3S,4R,5R)-5-(4-aminopyrrolo[2,1-f][1,2,4]triazin-7-yl)-5-cyano-3,4-dihydroxytetrahydrofuran-2-yl)methyl ((R)-2-((5-methoxypyridin-2-yl)oxy)-3-(octadecyloxy)propyl) hydrogen phosphate] |  |  |  | 0.028 | 0.962
CCCCCCCCCCCCCCCCCCOC[C@H](COP(=O)(O)OC[C@H]1O[C@@](C#N)(c2ccc3c(N)ncnn23)[C@H](O)[C@@H]1O)Oc1cc(OC)ccn1 [Example 90, ((2R,3S,4R,5R)-5-(4-aminopyrrolo[2,1-f][1,2,4]triazin-7-yl)-5-cyano-3,4-dihydroxytetrahydrofuran-2-yl)methyl ((R)-2-((4-methoxypyridin-2-yl)oxy)-3-(octadecyloxy)propyl) hydrogen phosphate] |  |  |  | 0.109 | 0.383
CCCCCCCCCCCCCCCCCCOC[C@H](COP(=O)(O)OC[C@H]1O[C@@](C#N)(c2ccc3c(N)ncnn23)[C@H](O)[C@@H]1O)Oc1ncccc1OC [Example 91, ((2R,3S,4R,5R)-5-(4-aminopyrrolo[2,1-f][1,2,4]triazin-7-yl)-5-cyano-3,4-dihydroxytetrahydrofuran-2-yl)methyl ((R)-2-((3-methoxypyridin-2-yl)oxy)-3-(octadecyloxy)propyl) hydrogen phosphate] |  |  |  | 0.046 | 0.454
CCCCCCCCCCCCCCCCCCOC[C@H](COP(=O)(O)OC[C@H]1O[C@@](C#N)(c2ccc3c(N)ncnn23)[C@H](O)[C@@H]1O)Oc1cc(C#N)ccn1 [Example 99, [(2R,3S,4R,5R)-5-(4-Aminopyrrolo[2,1-f][1,2,4]triazin-7-yl)-5-cyano-3,4-dihydroxy-tetrahydrofuran-2-yl]methyl [(2R)-2-[(4-cyano-2-pyridyl)oxy]-3-octadecoxy-propyl]hydrogen phosphate] |  |  |  |  | 1.78
CCCCCCCCCCCCCCCCOC[C@H](COP(=O)(O)OC[C@H]1O[C@@](C#N)(c2ccc3c(N)ncnn23)[C@H](O)[C@@H]1O)OCc1ccc(F)c(C#N)c1 [Example 109, [(2R,3S,4R,5R)-5-(4-Aminopyrrolo[2,1-f][1,2,4]triazin-7-yl)-5-cyano-3,4-dihydroxy-tetrahydrofuran-2-yl]methyl [(2R)-2-[(3-cyano-4-fluoro-phenyl)methoxy]-3-hexadecoxy-propyl] hydrogen phosphate] |  |  | 1.6 | 0.347 | 
CCCCCCCCCCCCCCCCCCOC[C@H](COP(=O)(O)OC[C@H]1O[C@@](C#N)(c2ccc3c(N)ncnn23)[C@H](O)[C@@H]1O)OCc1ccc(F)cc1 [Example 110, [(2R,3S,4R,5R)-5-(4-Aminopyrrolo[2,1-f][1,2,4]triazin-7-yl)-5-cyano-3,4-dihydroxy-tetrahydrofuran-2-yl]methyl [(2R)-2-[(4-fluorophenyl)methoxy]-3-octadecoxy-propyl] hydrogen phosphate] |  |  | 1.2 | 0.402 | 
